Source: EP0212822A1, “A composition containing a plant growth regulator and an alkanol and a method of using the same” (ICI AMERICAS INC., priority 1985, dated 1987)
Entries after “also recorded” stand apart in the source; their conditions may differ.

How the values were obtained:
[1] = Adsorption of tracer dyes to sawdust; type: physicochemical, Birch and Ash
Method: 0.1 g of methylene blue and 0.1 g of acid fuschin were each dissolved in 1 liter of methanol (Me), […] methanol/water (Me/Wa) and water (Wa). 2 g (fresh weight) of sawdust taken from the active conductive tissues of Birch and Ash were combined with 20 ml of solution. The dye solutions were shaken overnight. The supernatant was decanted and the quantity of dye remaining in solution estimated by spectroscopy.

[2] = system: Liquidambar styraciflua (Sweetgum); test: Trunk injection of PGR in ethanol or methanol, ratings; type: in vivo
Method: The examples which follow exemplify the improvements obtained by this invention. However, these examples are not intended to limit the scope of the invention. In Examples 1-41, the subject trees were injected at a distance approximately one foot from the soil line by drilling 7/32 inch diameter holes to a 2 inch depth at a 30-45° angle tangential to the trunk with a pressure injector (150 psi) purchased from the Asplundh Tree Expert Co., Company No. 346-3502. The results are expressed in terms of Retardation and Uniformity Ratings. The Retardation rating scale is as follows: • 0 = no retardataion • 1 = 1-20% retardation • 2 = 21-40% retardation • 3 = 41-60% retardation • 4 = 61-80% retardation • 5 = 81-100% retardation
The Uniformity Rating is a measure of the consistency of response to the treatment between different branches of the tree. The Uniformity scale employed is as follows: • 0 = no effect from PGR • 1 = poor • 2 = fair • 3 = acceptable • 4 = very good • 5 = excellent
20 grams of PGR were dissolved in 1 liter of solvent at room temperature and stirred until the solution was clear, approximately 20 minutes. The solution was injected into the trunk of Liquidambar styraciflua (Sweetgum).

Vicia faba (Broadbean) = test: Stem injection with hypodermic syringe, growth as % of control; type: in vivo; details: 0.1 ml injected, averaged over four replications
Method: 10 grams of PGR were dissolved in 1 liter of solvent at room temperature and stirred until the solution was clean, approximately 20 minutes. 0.1 ml of the solution was injected, […] above the soil level, in Vicia faba (Broadbean) with a hypodermic syringe.

[3] = week 2, 20 grams of PGR in 1 liter Ethanol
[4] = week 2, 20 grams of PGR in 1 liter Methanol
[5] = week 6, 20 grams of PGR in 1 liter Ethanol
[6] = week 6, 20 grams of PGR in 1 liter Methanol
[7] = 14 days, 10 grams of PGR in 1 liter Ethanol
[8] = 14 days, 10 grams of PGR in 1 liter Methanol
[9] = 21 days, 10 grams of PGR in 1 liter Ethanol
[10] = 21 days, 10 grams of PGR in 1 liter Methanol

## CC1=CC(=C(c2ccc(N)c(S(=O)(=O)O)c2)c2ccc(N)c(S(=O)(=O)O)c2)C=C(S(=O)(=O)O)C1=N [acid fuschin]
[1]; either solvent (water and methanol)
  binding of dye to wood: binds only partially; also recorded: binds weakly

## CC(C)(C)C(O)C(Cc1ccc(Cl)cc1)n1cncn1 (stereo not drawn) [PGR-1]
[2]; [3]
  Retardation/ Uniformity Ratings at Indicated Week After Treatment: 1 (1 = 1-20% retardation)
[2]; [4]
  Retardation/ Uniformity Ratings at Indicated Week After Treatment: 1 (1 = 1-20% retardation)
[2]; [5]
  Retardation/ Uniformity Ratings at Indicated Week After Treatment: 3 (3 = 41-60% retardation)
[2]; [6]
  Retardation/ Uniformity Ratings at Indicated Week After Treatment: 4 (4 = 61-80% retardation)
Vicia faba (Broadbean); [7]
  Growth (% Control) At Indicated Days After Treatment: 13 % Control
Vicia faba (Broadbean); [8]
  Growth (% Control) At Indicated Days After Treatment: 12 % Control
Vicia faba (Broadbean); [9]
  Growth (% Control) At Indicated Days After Treatment: 18 % Control
Vicia faba (Broadbean); [10]
  Growth (% Control) At Indicated Days After Treatment: 17 % Control

## CC(C)C(O)(c1ccc(OC(F)(F)F)cc1)c1cncnc1 (stereo not drawn) [PGR-2]
[2]; [3]
  Retardation/ Uniformity Ratings at Indicated Week After Treatment: 1 (1 = 1-20% retardation)
[2]; [4]
  Retardation/ Uniformity Ratings at Indicated Week After Treatment: 1 (1 = 1-20% retardation)
[2]; [5]
  Retardation/ Uniformity Ratings at Indicated Week After Treatment: 3 (3 = 41-60% retardation)
[2]; [6]
  Retardation/ Uniformity Ratings at Indicated Week After Treatment: 3 (3 = 41-60% retardation)
Vicia faba (Broadbean); [7]
  Growth (% Control) At Indicated Days After Treatment: 6 % Control
Vicia faba (Broadbean); [8]
  Growth (% Control) At Indicated Days After Treatment: 10 % Control
Vicia faba (Broadbean); [9]
  Growth (% Control) At Indicated Days After Treatment: 7 % Control
Vicia faba (Broadbean); [10]
  Growth (% Control) At Indicated Days After Treatment: 10 % Control

## CN(C)c1ccc2nc3ccc(=[N+](C)C)cc-3sc2c1 [methylene blue]
[1]; methanol as solvent
  binding of dye to wood: binds weakly
[1]; methanol as solvent, listed as Methylene blue
  binding of dye to wood: weakly
[1]; water as solvent
  binding of dye to wood: binding almost completely
[1]; water as solvent, listed as Methylene blue
  binding of dye to wood: binds strongly
